Test results reported in ChEMBL document CHEMBL4130502, “Discovery of thienopyrrolotriazine derivatives to protect mitochondrial function against Aβ-induced neurotoxicity” (Eur J Med Chem, 2017).

Legend:
[1] = target: Translocator protein (Mus musculus) (UniProt P50637); assay: Inhibition of TSPO in mouse HT22 cells assessed as reduction in amyloid beta (1 to 42) (unknown origin) induced mitochondrial permeability transition pore formation by measuring increase in green to red fluorescence ratio at 5 uM pretreated for 10 mins followed by amyloid beta (1 to 42) stimulation and measured at 1 hr interval for 3 hrs by JC-1 dye based fluorescence assay relative to control; assay type: cell-based; set-up: scale not given: the % may be the effect or the level left
Translocator protein (Mus musculus), sequence (P50637 whole entry, looked up): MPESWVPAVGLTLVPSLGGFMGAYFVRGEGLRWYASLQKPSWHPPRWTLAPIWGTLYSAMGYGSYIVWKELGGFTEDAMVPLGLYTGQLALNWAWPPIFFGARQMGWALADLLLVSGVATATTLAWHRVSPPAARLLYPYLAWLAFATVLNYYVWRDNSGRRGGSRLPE

[2] = target: Translocator protein (Mus musculus) (UniProt P50637); assay: Inhibition of TSPO in mouse HT22 cells assessed as recovery of ATP production at 5 uM preincubated for 10 mins followed by amyloid beta (1 to 42) stimulation and measured after 7 hrs by luciferase based assay relative to control; assay type: cell-based; set-up: scale not given: the % may be the effect or the level left
[3] = Cytotoxicity against mouse HT22 cells as cell viability at 5 uM after 24 hrs by MTT assay relative to control; assay type: cell-based, HT-22; settings: read-out: Activity
CYP1A2 = target: T1, CYP1A2 (Homo sapiens, UniProt P05177); assay: Inhibition of human CYP1A2 assessed as remaining enzyme activity at 10 uM preincubated for 5 mins followed by Vivid CYP substrate addition measured after 20 mins by fluorescence assay relative to control; assay type: ADME; settings: probe Vivid CYP substrate, read-out: Activity
T1 sequence (P05177 whole entry): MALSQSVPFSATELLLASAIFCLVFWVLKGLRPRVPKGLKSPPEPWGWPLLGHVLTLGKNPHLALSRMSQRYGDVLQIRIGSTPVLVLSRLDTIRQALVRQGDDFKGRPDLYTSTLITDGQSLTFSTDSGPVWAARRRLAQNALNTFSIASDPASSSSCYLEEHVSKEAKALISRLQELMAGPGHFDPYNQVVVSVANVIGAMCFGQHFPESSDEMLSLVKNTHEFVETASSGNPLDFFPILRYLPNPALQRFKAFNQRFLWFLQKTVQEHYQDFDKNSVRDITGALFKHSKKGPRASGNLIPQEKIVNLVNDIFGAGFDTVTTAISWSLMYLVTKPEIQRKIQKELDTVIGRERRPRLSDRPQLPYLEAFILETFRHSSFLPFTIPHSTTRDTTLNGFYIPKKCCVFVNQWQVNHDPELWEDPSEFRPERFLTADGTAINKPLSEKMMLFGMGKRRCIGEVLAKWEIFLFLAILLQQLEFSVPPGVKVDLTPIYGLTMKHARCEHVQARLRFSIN

Translocator protein [4] = target: Translocator protein (Rattus norvegicus, UniProt P16257); assay: Displacement of [3H]PK11195 from TSPO in Sprague-Dawley rat cerebral cortex membranes after 60 mins by liquid scintillation counting analysis; set-up: species or system Membrane
Translocator protein (Rattus norvegicus, UniProt P16257), sequence (P16257 whole entry, looked up): as the sequence (P50637 whole entry, looked up) above, with P2S, E3Q, V67I, D77E, A110V, L113M, V149M, P168T counted along it

CYP2D6 = CYP2D6 (Homo sapiens, UniProt P10635); assay: Inhibition of human CYP2D6 assessed as remaining enzyme activity at 10 uM preincubated for 5 mins followed by Vivid CYP substrate addition measured after 20 mins by fluorescence assay relative to control; assay type: ADME; settings: probe Vivid CYP substrate, read-out: Activity
CYP2D6, sequence (P10635 whole entry): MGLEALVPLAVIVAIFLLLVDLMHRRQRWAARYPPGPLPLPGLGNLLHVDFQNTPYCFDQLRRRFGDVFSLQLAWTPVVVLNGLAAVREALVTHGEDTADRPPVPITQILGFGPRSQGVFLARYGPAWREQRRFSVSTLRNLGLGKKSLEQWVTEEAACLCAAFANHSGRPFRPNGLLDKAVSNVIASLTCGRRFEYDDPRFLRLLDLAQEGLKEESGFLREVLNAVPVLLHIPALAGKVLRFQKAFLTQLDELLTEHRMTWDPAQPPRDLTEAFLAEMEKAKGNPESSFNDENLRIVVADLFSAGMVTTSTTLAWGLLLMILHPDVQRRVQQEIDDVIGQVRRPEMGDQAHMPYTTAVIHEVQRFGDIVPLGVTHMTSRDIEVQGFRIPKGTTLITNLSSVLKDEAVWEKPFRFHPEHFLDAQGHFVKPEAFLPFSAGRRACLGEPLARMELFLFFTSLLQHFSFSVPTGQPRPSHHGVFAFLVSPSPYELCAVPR

CYP2C9 = CYP2C9 (Homo sapiens, UniProt P11712); assay: Inhibition of human CYP2C9 assessed as remaining enzyme activity at 10 uM preincubated for 5 mins followed by Vivid CYP substrate addition measured after 20 mins by fluorescence assay relative to control; assay type: ADME; settings: probe Vivid CYP substrate, read-out: Activity
CYP2C9, sequence (P11712 whole entry): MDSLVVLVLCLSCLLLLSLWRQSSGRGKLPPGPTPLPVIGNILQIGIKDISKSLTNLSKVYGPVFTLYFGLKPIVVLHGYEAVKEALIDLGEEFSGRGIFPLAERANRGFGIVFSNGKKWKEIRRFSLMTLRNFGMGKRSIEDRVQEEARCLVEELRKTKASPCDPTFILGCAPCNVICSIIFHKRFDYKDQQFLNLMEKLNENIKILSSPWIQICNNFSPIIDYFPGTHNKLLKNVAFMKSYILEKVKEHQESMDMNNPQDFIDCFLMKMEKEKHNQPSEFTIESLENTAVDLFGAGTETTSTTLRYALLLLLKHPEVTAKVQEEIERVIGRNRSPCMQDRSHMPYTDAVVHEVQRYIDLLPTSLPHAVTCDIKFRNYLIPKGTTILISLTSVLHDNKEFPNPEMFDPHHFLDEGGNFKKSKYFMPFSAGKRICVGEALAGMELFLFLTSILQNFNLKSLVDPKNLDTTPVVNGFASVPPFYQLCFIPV

CYP3A4 = CYP3A4 (Homo sapiens, UniProt P08684); assay: Inhibition of human CYP3A4 assessed as remaining enzyme activity at 10 uM preincubated for 5 mins followed by Vivid CYP substrate addition measured after 20 mins by fluorescence assay relative to control; assay type: ADME; settings: probe Vivid CYP substrate, read-out: Activity
CYP3A4, sequence (P08684 whole entry): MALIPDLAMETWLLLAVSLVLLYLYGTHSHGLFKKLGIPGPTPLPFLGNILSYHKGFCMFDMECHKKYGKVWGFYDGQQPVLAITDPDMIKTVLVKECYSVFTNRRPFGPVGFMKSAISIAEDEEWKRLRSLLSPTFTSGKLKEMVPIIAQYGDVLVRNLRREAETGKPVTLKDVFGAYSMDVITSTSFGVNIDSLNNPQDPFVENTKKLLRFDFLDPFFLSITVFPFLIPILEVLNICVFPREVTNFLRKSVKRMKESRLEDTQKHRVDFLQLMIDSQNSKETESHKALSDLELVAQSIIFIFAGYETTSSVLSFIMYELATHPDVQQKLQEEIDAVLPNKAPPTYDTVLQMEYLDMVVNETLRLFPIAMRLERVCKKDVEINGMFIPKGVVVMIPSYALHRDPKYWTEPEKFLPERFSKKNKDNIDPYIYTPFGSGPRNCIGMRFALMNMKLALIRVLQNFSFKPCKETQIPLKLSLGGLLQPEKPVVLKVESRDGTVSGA

CYP2C19 = CYP2C19 (Homo sapiens, UniProt P33261); assay: Inhibition of human CYP2C19 assessed as remaining enzyme activity at 10 uM preincubated for 5 mins followed by Vivid CYP substrate addition measured after 20 mins by fluorescence assay relative to control; assay type: ADME; settings: probe Vivid CYP substrate, read-out: Activity
CYP2C19, sequence (P33261 whole entry): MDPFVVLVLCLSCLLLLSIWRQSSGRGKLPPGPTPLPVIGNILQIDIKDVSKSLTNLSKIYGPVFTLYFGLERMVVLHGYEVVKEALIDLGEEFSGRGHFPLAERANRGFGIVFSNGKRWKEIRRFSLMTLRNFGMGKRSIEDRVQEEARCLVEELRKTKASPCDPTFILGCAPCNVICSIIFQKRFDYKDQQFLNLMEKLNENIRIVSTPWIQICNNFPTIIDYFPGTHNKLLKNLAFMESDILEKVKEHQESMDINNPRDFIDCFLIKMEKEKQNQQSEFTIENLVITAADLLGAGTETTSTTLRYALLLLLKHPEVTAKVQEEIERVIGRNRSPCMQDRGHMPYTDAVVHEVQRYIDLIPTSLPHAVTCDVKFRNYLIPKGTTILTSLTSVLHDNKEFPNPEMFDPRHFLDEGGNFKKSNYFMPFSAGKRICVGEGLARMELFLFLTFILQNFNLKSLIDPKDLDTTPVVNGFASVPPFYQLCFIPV

Translocator protein [5] = target: Translocator protein (Homo sapiens, UniProt P30536); assay: Binding affinity to C-terminal DDK-tagged human recombinant full-length TSPO expressed in HEK293 cells by SPR assay
Translocator protein (Homo sapiens, UniProt P30536), sequence (P30536 whole entry): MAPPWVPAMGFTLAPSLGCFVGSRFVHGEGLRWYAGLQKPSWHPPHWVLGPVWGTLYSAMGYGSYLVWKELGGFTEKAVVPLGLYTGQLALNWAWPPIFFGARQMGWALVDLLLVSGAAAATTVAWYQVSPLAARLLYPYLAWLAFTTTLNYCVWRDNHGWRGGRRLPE

[6] = Stability in human liver microsomes assessed as parent compound remaining at 1 uM preincubated for 5 mins followed by NADPH addition measured after 30 mins by LC-MS/MS analysis; assay type: ADME, microsome; settings: read-out: Stability
[7] = Stability in dog liver microsomes assessed as parent compound remaining at 1 uM preincubated for 5 mins followed by NADPH addition measured after 30 mins by LC-MS/MS analysis; assay type: ADME, Canis lupus familiaris, microsome; settings: read-out: Stability
[8] = Stability in rat liver microsomes assessed as parent compound remaining at 1 uM preincubated for 5 mins followed by NADPH addition measured after 30 mins by LC-MS/MS analysis; assay type: ADME, microsome; settings: read-out: Stability
[9] = Stability in mouse liver microsomes assessed as parent compound remaining at 1 uM preincubated for 5 mins followed by NADPH addition measured after 30 mins by LC-MS/MS analysis; assay type: ADME, microsome; settings: read-out: Stability
[10] = Stability in human plasma assessed as parent compound remaining at 10 uM after 30 mins by LC-MS/MS analysis; assay type: ADME, cell-free; settings: read-out: Stability
[11] = Stability in human plasma assessed as parent compound remaining at 10 uM after 120 mins by LC-MS/MS analysis; assay type: ADME, cell-free; settings: read-out: Stability
[12] = Stability in rat plasma assessed as parent compound remaining at 10 uM after 30 mins by LC-MS/MS analysis; assay type: ADME, cell-free; settings: read-out: Stability
[13] = Stability in rat plasma assessed as parent compound remaining at 10 uM after 120 mins by LC-MS/MS analysis; assay type: ADME, cell-free; settings: read-out: Stability

| Activity [1] | Activity [2] | activity at 20 min, 10 µM (CYP1A2) | IC50 (Translocator protein [4]) | activity at 20 min, 10 µM (CYP2D6) | activity at 20 min, 10 µM (CYP2C9) | activity at 20 min, 10 µM (CYP3A4) | activity at 20 min, 10 µM (CYP2C19) | Kd (Translocator protein [5]) | remaining at 0.5 h, 1 µM [6] | remaining at 0.5 h, 1 µM [7] | remaining at 0.5 h, 1 µM [8] | remaining at 0.5 h, 1 µM [9] | remaining at 0.5 h, 10 µM [10] | remaining at 2 h, 10 µM [11] | remaining at 0.5 h, 10 µM [12] | remaining at 2 h, 10 µM [13] | Compound | viability at 24 h, 5 µM [3] |
| --- | --- | --- | --- | --- | --- | --- | --- | --- | --- | --- | --- | --- | --- | --- | --- | --- | --- | --- |
| 66% | 26% | 70.9% | 123 nM | 38.4% | 21.1% | 51.4% | 10.2% | – | – | – | – | – | – | – | – | – | CCN(Cc1ccccc1)C(=O)CSc1nnc(C)n2c1cc1sc(C)cc12 | 97% |
| 46% | 8% | 33.7% | 24.8 nM | 49.5% | 70.5% | 32.2% | 16.8% | 39.6 nM | 5% | 5.1% | 6.4% | 8.2% | > 100% | 96.8% | 94% | 72.4% | CCc1nnc(SCC(=O)N(C)c2ccccc2)c2cc3sccc3n12 | 97% |
| 61% | 44% | 50.7% | 39.9 nM | 60.4% | 64.8% | 64.1% | 52.2% | 61.2 nM | 8.8% | 9.8% | 9% | 12.8% | 99.3% | 93.6% | 96.6% | 80.6% | CCc1nnc(SCC(=O)N(C)c2ccccc2)c2cc3sc(C)cc3n12 | 91% |
| 70% | 41% | 40.1% | 2220 nM | 81.7% | 38.8% | 20.6% | 20.3% | – | – | – | – | – | – | – | – | – | CCc1nnc(SCC(=O)N2CCN(c3ccccc3)CC2)c2cc3sc(C)cc3n12 | 99% |
| 62% | 18% | 65.5% | > 10000 nM | 54.2% | 50% | 44.7% | 30.9% | – | – | – | – | – | – | – | – | – | CCc1nnc(SCC(=O)Nc2ccc(OC)c(OC)c2)c2cc3sc(C)cc3n12 | 91% |
| 61% | 22% | 49.2% | 1670 nM | 17% | 95.9% | 34.1% | 44.1% | – | – | – | – | – | – | – | – | – | CCc1nnc(SCC(=O)Nc2ccccc2)c2cc3sc(C)cc3n12 | 92% |
| 56% | 25% | 46.8% | 55.1 nM | 48.8% | 124% | 41.3% | 28.8% | – | – | – | – | – | – | – | – | – | Cc1nnc(SCC(=O)N(C)c2ccccc2)c2cc3sccc3n12 | 99% |
